Measured values reported in US9688666B2, “Lamivudine salts” (Tobira Therapeutics, Inc., priority 2013, dated 2017).

Assays:
Assay type in all cases: physicochemical
[1] = Competitive slurry of Form I/Form II mixture, product examined by XRPD; conditions: 20 mg Form I + 20 mg Form II suspended in 400 μL acetone or 400 μL isopropanol, shaken at ambient temperature for 72 hours; same result in both cases
Description: A first mixture of 20 mg lamivudine hydrochloride polymorph Form I and 20 mg lamivudine hydrochloride polymorph Form II was suspended in 400 μL of acetone, and a second mixture of 20 mg lamivudine hydrochloride polymorph Form I and 20 mg lamivudine hydrochloride polymorph Form II was suspended in 400 μL isopropanol. Both mixtures were shaken at ambient temperature for 72 hours, after which the resulting product was examined by XRPD. In both cases, the resulting product an XRPD diffraction pattern substantially similar to that of FIG. 6.

[2] = Storage stability at ambient temperature and humidity, XRPD before and after; conditions: stored in a cupboard at ambient temperature and humidity for 16 weeks
Description: A sample of lamivudine hydrochloride polymorph Form II was analyzed by XRPD, and then stored in a cupboard at ambient temperature and humidity for 16 weeks, after which the sample was re-analyzed by XRPD. FIG. 32 compares the XRPD pattern obtained before storage (top pattern) and after 16 weeks of storage (middle pattern) with the XRPD pattern of lamivudine hydrochloride polymorph Form I obtained by the method of Example 1 (bottom pattern).

[3] = Gravimetric vapor sorption (GVS), hygroscopicity; conditions: 25 degrees C, relative humidity 0% to 90% in 10% RH increments
From the text: A crystalline form can be characterized by gravimetric vapor sorption (GVS). A GVS plot can be a graph of weight gain or loss against relative humidity. The total weight gain or loss is often reported as a weight percent (wt %), the value of which allows for and includes an appropriate margin of error that can be represented by the symbol “±.” For example, a weight change of about 2.0±0.5% can refer to a range from about 2+0.5%, that is, 2.5%, to about […], that is, about 1.5%. Depending on the sample preparation technique, the calibration technique applied to the instrument, human operation variation, the nature of the particular instrument being used, and other factors known to the art, the appropriate margin of error for a weight gain or loss can be about ±2%, about ±1%, about ±0.75%, about ±0.5%, about ±0.25%, or less. Among other things, GVS can be useful for determining whether a crystalline form changes upon exposure to humidity.
Gravimetric vapor sorption plots were obtained on an ‘Iga Sorp’ vapor sorption balance manufactured by Hidden Analytical Instruments, which was calibrated according to manufacturer recommendations. Samples were dried by maintaining a 0% humidity until no additional weight change was measured. […] After equilibration, the weight change was measured, and the RH was then increased by 10% following the above-described equilibration procedure. […]

GVS reversible weight gain [3] [%] | Structure (SMILES) | relative thermodynamic stability of polymorphs (form of product by XRPD) [1] | solid form stability on storage (XRPD) [2]
 | Cl.Nc1ccn([C@@H]2CS[C@H](CO)O2)c(=O)n1 [listing 1 of 2 here] | less thermodynamically stable than, and transforming into, lamivudine hydrochloride polymorph Form I | spontaneously converting to lamivudine hydrochloride polymorph Form I after 16 weeks of storage
≤ 1 | Cl.Nc1ccn([C@@H]2CS[C@H](CO)O2)c(=O)n1 [listing 2 of 2 here] |  | 
